# Data as given in publication PMC8205227 (ACS Infectious Diseases, 2021).
# Values joined by “and” are separate entries in the source; they are usually repeats but may differ in a detail not shown here. Equal values may be shown once. “Also recorded” adds a separate entry of the source. Read-outs that look alike come from different tables or passages of the source.
# Experiments:
# [1] = biological target: M. tuberculosis CoaBC (Mycobacterium tuberculosis, UniProt P9WNZ1); assay type: binding
# [2] = tested on: Mtb CoaE; set-up: method as in PMID 21731728; details: 100 μM CTP; cited from earlier work
# [3] = assay type: in vitro ADME, mouse; details: microsomes
# Description: (§1) Compounds were profiled for HepG2 cytotoxicity, mouse liver microsomal clearance, and aqueous solubility, as previously described.[66]
# [4] = physchem; assay type: physicochemical; details: kinetic from dmso stock
# Description: as §1
# [5] = tested on: Mtb H37RvMA; assay: microbe, parasite or virus in culture; assay type: cell-based, Mycobacterium tuberculosis
# [6] = tested on: pyrophosphatase; assay: Counter-screen for false positives (pyrophosphatase inactivation); assay type: biochemical
# Experimental: Counter-screens carried out to exclude false positive compounds were performed in 50 μL reactions containing 0.5 U/mL pyrophosphatase and 2 μM pyrophosphate in 100 mM Tris-HCl, pH 7.6, buffer containing 1 mM MgCl2 and 1 mM TCEP for 2 h at room temperature in 384-well microplates (Greiner Bio-One). Control reactions were performed in the absence of the pyrophosphatase. The reactions were terminated by addition of 50 μL BIOMOL Green (Enzo Life Sciences), and product formation was measured by absorbance (650 nm) using a PHERAstar microplate reader (BMG Labtech) following incubation for 20 min. Liquid dispensing was performed using a Thermo Scientific Matrix Wellmate, and data were processed and analyzed using ActivityBase (IDBS).
# [7] = physchem; assay type: physicochemical
# Description: Table 1 SAR and In Vitro Profiling of Modifications to Compound 1a ^a | column: CHI LogD
# [8] = biological target: Mtb CoaB (Mycobacterium tuberculosis, UniProt P9WNZ1); assay: BIOMOL Green end-point pyrophosphate quantification assay (high-throughput screen); assay type: biochemical
# [9] = tested on: HepG2 cells; assay: HepG2 cytotoxicity; assay type: cell-based; details: Homo sapiens
# Description: as §1
# [10] = tested on: wild-type Mtb H37RvMA; assay: LC-MS metabolomic profiling of Mtb after compound exposure; assay type: cell-based, Mycobacterium tuberculosis; details: 5 μM or 50 μM, 24 h
# [11] = biological target: human CoaB (Homo sapiens, UniProt Q9HAB8); assay: EnzChek coupled enzyme pyrophosphate assay, human CoaB; assay type: biochemical; details: 1 μM human CoaB; read-out: IC50 against human CoaB (EnzChek assay)
# [12] = biological target: T1, Mtb CoaBC (Mycobacterium tuberculosis, UniProt P9WNZ1)
# [13] = biological target: T1, Mtb CoaBC; assay: CMP quantification assay for L-cysteine kinetics and competition; assay type: biochemical
# [14] = tested on: coaBC Tet-OFF hypomorph; assay: microbe, parasite or virus in culture; assay type: cell-based, Mycobacterium tuberculosis; details: for MIC: read-out: MIC in the presence of PantS; for Effect of ATc-mediated coaBC silencing on susceptibility of the coaBC hypomorph (hypersensitization): increasing ATc, inhibitor up to 125 μM
# [15] = tested on: coupled reporter enzymes (inorganic pyrophosphatase, purine nucleoside phosphorylase); assay: Inhibition of the coupled reporter enzymes of the EnzChek assay; assay type: biochemical; details: at 100 μM
# [16] = biological target: T1, Mtb CoaBC; assay: biochemical
# [17] = tested on: CoaB; set-up: method as in PMID 33420031; details: allosteric CoaB inhibitor; cited from earlier work
# [18] = tested on: Mtb H37RvMA; set-up: method as in PMID 33420031; details: cited from earlier work
# [19] = tested on: coaBC hypomorph; assay type: cell-based, Mycobacterium tuberculosis; details: ATc 200 ng/mL; pantothenate 25 µg/mL
# [20] = tested on: panC Tet-OFF hypomorph; assay type: cell-based, Mycobacterium tuberculosis; details: pantothenate 25 µg/mL
# [21] = tested on: Nc1ccn([C@@H]2O[C@H](COP(=O)(O)OP(=O)(O)OP(=O)(O)O)[C@@H](O)[C@H]2O)c(=O)n1; assay: purified protein, by the assay type; details: other: other substrates fixed (125 μM CTP or PPA, 500 μM L-cysteine); pH 7.5
# [22] = tested on: CC(C)(COP(=O)(O)O)[C@@H](O)C(=O)NCCC(=O)O; assay: purified protein, by the assay type; details: other: other substrates fixed (125 μM CTP or PPA, 500 μM L-cysteine); pH 7.5
# [23] = Mycobacterium tuberculosis, H37RV, read-out: Mtb H37Rv MIC
# [24] = BIOMOL Green pyrophosphate quantification assay
# Chain of Mtb CoaB (P9WNZ1 whole entry): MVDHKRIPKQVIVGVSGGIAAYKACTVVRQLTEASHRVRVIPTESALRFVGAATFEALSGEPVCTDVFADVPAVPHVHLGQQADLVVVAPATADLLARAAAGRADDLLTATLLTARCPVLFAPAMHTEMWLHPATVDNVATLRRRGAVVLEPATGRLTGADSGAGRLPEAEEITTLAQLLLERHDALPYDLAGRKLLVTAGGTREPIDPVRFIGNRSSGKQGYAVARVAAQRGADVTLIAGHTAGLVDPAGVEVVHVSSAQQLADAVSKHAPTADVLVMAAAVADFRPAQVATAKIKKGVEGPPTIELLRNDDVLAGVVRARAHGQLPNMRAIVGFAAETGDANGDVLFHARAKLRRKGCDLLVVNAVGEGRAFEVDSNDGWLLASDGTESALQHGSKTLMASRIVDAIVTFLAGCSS
# T1 sequence (P9WNZ1 whole entry): as above
# Chain of M. tuberculosis CoaBC (P9WNZ1 whole entry): as above
# Chain of human CoaB (Q9HAB8 whole entry): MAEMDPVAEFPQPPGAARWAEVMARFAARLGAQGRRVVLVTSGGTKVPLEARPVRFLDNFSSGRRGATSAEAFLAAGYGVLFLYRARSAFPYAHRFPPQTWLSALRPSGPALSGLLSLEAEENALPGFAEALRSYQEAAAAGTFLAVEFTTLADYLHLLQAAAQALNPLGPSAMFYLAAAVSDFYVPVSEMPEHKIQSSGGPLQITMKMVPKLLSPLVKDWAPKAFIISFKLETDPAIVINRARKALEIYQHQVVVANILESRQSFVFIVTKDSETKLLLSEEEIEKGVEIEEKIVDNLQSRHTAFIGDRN
compound,measurement,setting,value
"Nc1ccn([C@@H]2O[C@H](COP(=O)(O)O)[C@@H](O)[C@H]2O)c(=O)n1 [CMP, cytidine-5′-monophosphate]","Thermal shift relative to CoaBC, Substrate",[1],1.5 °C
"Nc1ccn([C@@H]2O[C@H](COP(=O)(O)OP(=O)(O)OP(=O)(O)O)[C@@H](O)[C@H]2O)c(=O)n1 [CTP, cytidine-5′-triphosphate]","Thermal shift relative to CoaBC, Substrate",[1],5.5 °C
same,Decrease in CoaE activity,[2],greater than 60%
"Cc1nn(-c2ccccc2)c(O)c1Sc1ccccc1 [Compound 1a, 4-Phenylsulfanyl-5-methyl-2-phenyl-pyrazol-3-ol]",Mouse Cli (intrinsic clearance),[3]; mouse,<0.5 mL/min/g
same,solubility kinetic,[4],219 µM
same,MIC,[5]; [23],> 125 µM
same,MIC,[5]; read-out: Mtb H37Rv MIC,>125 µM
same,Activity in counter-screen for pyrophosphatase inactivation,[6],inactivity
same,chromatographic logD,[7],0.4
same,IC50,[8]; [24],9.9 µM
same,IC50,[9],> 50 µM
"Cc1ccc(Sc2c(C)nn(-c3ccccc3)c2O)cc1 [Compound 1b, 4-(4-Methylphenyl)sulfanyl-5-methyl-2-phenyl-pyrazol-3-ol]",Mouse Cli (intrinsic clearance),[3]; mouse,1.1 mL/min/g
same,solubility kinetic,[4],156 µM
same,MIC,[5]; [23],> 125 µM
same,chromatographic logD,[7],0.7
same,IC50,[8]; [24],3.3 µM
same,IC50,[9],> 50 µM
"Cc1nn(-c2ccccc2)c(O)c1Sc1ccc(Cl)cc1 [Compound 1c, 4-(4-Chlorophenyl)sulfanyl-5-methyl-2-phenyl-pyrazol-3-ol]",Mouse Cli (intrinsic clearance),[3]; mouse,2.2 mL/min/g
same,solubility kinetic,[4],110 µM
same,MIC,[5]; [23],> 125 µM
same,chromatographic logD,[7],0.7
same,IC50,[8]; [24],4 µM
same,IC50,[9],> 50 µM
Cc1nn(-c2ccccc2)c(O)c1Sc1ccc(Cl)cc1Cl [Compound 1d],MIC,[5]; [23],> 125 µM
same,IC50,[8]; [24],3.2 µM
same,IC50,[9],> 50 µM
"COc1ccc(Sc2c(C)nn(-c3ccccc3)c2O)cc1 [Compound 1e, 4-(4-Methoxyphenyl)sulfanyl-5-methyl-2-phenyl-pyrazol-3-ol]",MIC,[5]; [23],> 125 µM
same,Fold increase in potency against Mtb CoaB relative to 1a,[8],4 fold
same,IC50,[8]; [24],2.8 µM
same,IC50,[9],> 50 µM
"Cc1nn(-c2ccccc2)c(O)c1Sc1nc2cc(Cl)ccc2o1 [Compound 1f, 4-(5-Chloro-1,3-benzoxazol-2-yl)sulfanyl-5-methyl-2-phenyl-pyrazol-3-ol]","Change in abundance of CoA thioesters propionyl-CoA, succinyl-CoA and malonyl-CoA relative to untreated bacilli",[10],notable depletion
same,Change in abundance of dephospho-CoA relative to untreated bacilli,[10],substantial accumulation
same,Change in the level of CoA,[10],no detectable change
same,Mouse Cli (intrinsic clearance),[3]; mouse,2.3 mL/min/g
same,solubility kinetic,[4],219 µM
same,Effect of ATc on activity against wild-type Mtb H37RvMA,[5],no effect
same,Rescue from compound toxicity by PantS supplementation,[5],rescued the wild-type strain
same,MIC,[5]; [23],25.9 µM
same,MIC,"[5]; Mycobacterium tuberculosis, H37RVMA, read-out: MIC in the presence of PantS",83.3 µM
same,MIC,[5]; read-out: MIC in the presence of PantS,> 125 µM
same,IC50,[11],23.4 µM
same,chromatographic logD,[7],0.8
same,Mode of inhibition with respect to CTP,[12],noncompetitive inhibition
same,Mode of inhibition with respect to PPA,[12],uncompetitively; also recorded: uncompetitive inhibition
same,"αKi, uncompetitive inhibition for PPA",[12]; varying PPA,19.0 ± 0.6 µM
same,IC50,[8]; [24],15.6 µM
same,Mode of inhibition with respect to L-cysteine,[13],noncompetitive inhibition
same,Ki,[13]; varying L-cysteine,22.7 ± 7.6 µM
same,MIC,[14]; Mycobacterium tuberculosis,77.2 µM
same,Fold decrease in MIC against coaBC hypomorph,[14]; in the presence of 12.5 ng/mL ATc,~7 fold
same,Effect of ATc-mediated coaBC silencing on susceptibility of the coaBC hypomorph (hypersensitization),[14],dose-dependent hypersensitization
same,Fold reduction in susceptibility of coaBC hypomorph on PantS supplementation,[14]; pantethine 2.5 mg/mL,4 fold
same,MIC,[14],> 125 µM
same,ΔTm (difference in melting temperature in the presence and absence of 1f),[1],0 °C and 1 °C
same,IC50,[9],> 50 µM
same,Activity on the coupled reporter enzymes,[15],inactive
same,IC50,[16],24.3 µM
same,Ki,[16],10.1 ± 1.4 µM
"Cc1nn(-c2ccc(Cl)cc2)c(O)c1Sc1ccc(Cl)cc1 [Compound 1g, 2-(4-Chlorophenyl)-4-(4-chlorophenyl)sulfanyl-5-methyl-pyrazol-3-ol]",Mouse Cli (intrinsic clearance),[3]; mouse,2.8 mL/min/g
same,solubility kinetic,[4],110 µM
same,MIC,[5]; [23],> 125 µM
same,chromatographic logD,[7],1.5
same,IC50,[8]; [24],3.5 µM
same,Effect of ATc-mediated coaBC silencing on susceptibility of the coaBC hypomorph (hypersensitization),[14],lack of hypersensitization
"Cc1nn(-c2cccc(Cl)c2)c(O)c1Sc1ccc(Cl)cc1 [Compound 1h, 2-(3-Chlorophenyl)-4-(4-chlorophenyl)sulfanyl-5-methyl-pyrazol-3-ol]",Mouse Cli (intrinsic clearance),[3]; mouse,2.6 mL/min/g
same,solubility kinetic,[4],55 µM
same,MIC,[5]; [23],> 125 µM
same,chromatographic logD,[7],1.5
same,IC50,[8]; [24],2.3 µM
same,Effect of ATc-mediated coaBC silencing on susceptibility of the coaBC hypomorph (hypersensitization),[14],lack of hypersensitization
Cc1nn(-c2ccc(Cl)cn2)c(O)c1Sc1ccc(Cl)cc1 [Compound 1i],Mouse Cli (intrinsic clearance),"[3]; CD1, mouse",<0.5 mL/min/g
same,solubility kinetic,[4],79 µM
same,MIC,[5]; [23],6.2 µM
same,chromatographic logD,[7],3.7
same,IC50,[8]; [24],> 50 µM
same,Mtb CoaB IC50,[8]; [24],complete loss of inhibitory activity
same,Effect of ATc-mediated coaBC silencing on susceptibility of the coaBC hypomorph (hypersensitization),[14],lack of hypersensitization
same,IC50,[9],40 µM
"O=c1cc(-c2ccc(O)c(O)c2)oc2cc(O)c(O)cc12 [Compound 2b, reference compound]","Change in abundance of CoA thioesters propionyl-CoA, succinyl-CoA and malonyl-CoA relative to untreated bacilli",[10],notable depletion
same,Change in abundance of dephospho-CoA relative to untreated bacilli,[10],substantial accumulation
same,Change in the level of CoA,[10],no detectable change
same,IC50,[17],0.08 µM
same,MIC against Mtb (whole-cell activity),[18],> 250 µM
N[C@@H](CS)C(=O)O [L-cysteine],"Thermal shift relative to CoaBC, Substrate",[1],0.5 °C
"CC(C)(COP(=O)(O)O)[C@@H](O)C(=O)NCCC(=O)O [PPA, 4′-phosphopantothenate]","Thermal shift relative to CoaBC, Substrate",[1],3.5 °C
"CC(C)(CO)[C@@H](O)C(=O)NCCC(=O)O [Pan, pantothenate]",Rescue of growth of the coaBC hypomorph,[19],unable to restore growth
same,Rescue from growth inhibitory effects of PanC deficiency,[20],fully rescued
"NNC(=O)c1ccncc1 [isoniazid, reference compound]",Effect of ATc-mediated coaBC silencing on susceptibility of the coaBC hypomorph (hypersensitization),[14],did not render the coaBC hypomorph more susceptible
"CO[C@H]1/C=C/O[C@@]2(C)Oc3c(C)c(O)c4c(O)c(c(/C=N/N5CCN(C)CC5)c(O)c4c3C2=O)NC(=O)/C(C)=C\C=C\[C@H](C)[C@H](O)[C@@H](C)[C@@H](O)[C@@H](C)[C@H](OC(C)=O)[C@@H]1C [rifampicin, reference compound]",Effect of ATc-mediated coaBC silencing on susceptibility of the coaBC hypomorph (hypersensitization),[14],did not render the coaBC hypomorph more susceptible
Mtb CoaBC (Mycobacterium tuberculosis H37Rv),Km,[21],27.4 ± 2.6 µM
same,Km,[22],45.4 ± 5.3 µM
